Assay results taken from patent publication US10933077B2, “TLR4 inhibitors for the treatment of human infectious and inflammatory disorders” (UNIVERSITY OF PITTSBURGH—OF THE COMMONWEALTH SYSTEM OF …, priority 2010, dated 2021).

Experiments:
TNFα mRNA = assay: Human NEC tissue explants treated with LPS, TNFα mRNA; type: cell-based; conditions: C34 10 uM, 30 minutes pretreatment; LPS 25 ug/ml, 37° C., 3 hours
Procedure: (§1) The effect of C34 was then tested on explants of human NEC tissue. These explants were obtained from human infants suffering from NEC and were prepared from NEC-affected portions of the intestine. When explants were treated with LPS (25 ug/ml, 37° C., 3 hours) the level of TNFα mRNA (FIG. 12) and iNOS mRNA (FIG. 13) increased precipitously.

[1] = system: LPS-induced NFkB activation; assay: NFkB-luciferase reporter mice assay (LPS-induced endotoxemia); type: in vivo; conditions: LPS 2 mg/kg plus compound 1 mg/kg i.p.
Procedure: Compound preparation and delivery. All 65 identified compounds were received in solid form and stored at 4° C. until use. Stock solutions of each compound were made by dissolving the appropriate amount of each compound in dimethyl sulfoxide (DMSO) to yield a concentration of 10 mM. Immediately prior to injection into experimental animals, the compounds were diluted to an experimental concentration of 100 uM in phosphate-buffered saline (PBS). Total concentration of DMSO in the final diluted drug was 1%. Compounds were closely examined to insure that no precipitate formed prior to injection and were stored on ice until injection. All compounds were given via intraperitoneal (i.p.) injection in a total volume of 200 ul using a 1 cc syringe and 27 gauge needle. In all experiments listed below, the compounds were delivered to the experimental mice 30 minutes prior to injection with lipopolysaccharide (LPS) to induce endotoxemia. Control animals not receiving compound received 1% DMSO dissolved in PBS. Following drug injection, the mice were observed closely in their cages for signs of immediate toxicity or adverse reaction to the drug, including but not limited to piloerection, tachypnea, bleeding, abnormal or aggressive behavior, signs of altered mental status, and level of activity.
Induction of endotoxemia. All mice were housed and cared for at the Rangos Research Center, Children's Hospital of Pittsburgh (Pittsburgh, Pa.). All experiments were approved by the Children's Hospital of Pittsburgh Animal Care Committee and by the Institutional Review Board of the University of Pittsburgh. Swiss Webster (CFW) and NFkB-luciferase reporter mice were obtained from The Jackson Laboratory. Throughout the course of all experiments, mice were housed 4 per cage with access to food, water, and standard bedding. Endotoxemia was induced in all experiments by i.p. injection of LPS (Escherichia coli 0111:B4 purified by gel filtration chromatography, >99% pure, Sigma-Aldrich) at a dose of 2 mg/kg for 6 hours. At the end of each experiment, all animals were euthanized by CO2 hypoxia and cervical dislocation.
NFkB-luciferase reporter mice assay. NFkB-luciferase reporter mice, in which the […], were subjected to endotoxemia with or without pretreatment with experimental compounds. The experimental compounds treated by this assay were compounds 1-6, with compounds 1-3 tested first and compounds 4-6 tested later. For both experiments, the mice were 6 weeks old on the date of the experiment. […] After whole body imaging, an additional injection of luciferin is given and animals were euthanized, organs were harvested, and the extent of NFkB activation within various tissues was further analyzed by an additional luminescence image of the individual organs. […]

iNOS mRNA [2] = assay: CFW-NEC mouse model (formula feeding), iNOS mRNA levels; type: in vivo; conditions: 1 mg/kg, i.p., once daily for the first four days of the five day model; relative to RPLO
Source text: (§2) Inducible nitric oxide synthase (iNOS) is associated with necrotizing enterocolitis (NEC) in human infants. In a second set of experiments, the CFW-NEC mouse model system for NEC was used to evaluate the effect of various compounds from TABLES 1 and 2 above on iNOS mRNA levels. A model system for NEC was induced in newborn mouse pups by formula feeding, where control animals were breast-fed (Sodhi et al., 2010, Gastroenterol. 138(1):185-196; Richardson et al., 2010, Gastroenterol. 139(3):904-917). […] Note that RPLO stands for 505 ribosomal subunit protein L15, an acknowledged housekeeping gene, which means that it is a constitutive gene expressed at relatively constant levels by all cells and is thus used as a reference for comparing other genes which may vary under experimental conditions. In this same model system, levels of TLR4 mRNA levels were also evaluated. […] In contrast, the level of TLR4 was not increased in FF animals treated with C34 (1 mg/kg, i.p. once daily for the first four days of the five day model) and indeed mRNA levels were 30 percent below normal (see FIG. 14).

iNOS mRNA [3] = assay: Human NEC tissue explants treated with LPS, iNOS mRNA; type: cell-based; conditions: C34 10 uM, 30 minutes pretreatment; LPS 25 ug/ml, 37° C., 3 hours
Procedure: as §1

[4] = Murine hemorrhagic shock (H/S) model, serum AST and ALT (liver damage); type: in vivo, mice; conditions: 1 mg/kg, i.p. divided in two doses (30 minutes prior to H/S and immediately prior to resuscitation); versus PBS
Procedure: An experiment was performed to test the effect of TLR4 inhibitors and C34 in particular on the tissue damage associated with hemmorhagic shock. A murine model was used in which, under sterile conditions and anesthesia induced using i.p. sodium pentobarbital (20 mg/kg), a left groin exploration was performed, and the left femoral artery was cannulated with tapered polyethylene (PE)-10 tubing and connected to a blood pressure transducer for continuous mean arterial pressure (MAP) monitoring for the duration of the experiment (6 h) as described in Sodhi, et al., 2011, Am. J. Physiol. Gastrointest. Liver Physiol. 300(5):G862-G873. To induce hemorrhagic shock, blood was withdrawn to allow the mean arterial pressure to drop to 25 mmHg over 5 minutes, and the blood pressure was maintained at this level for 150 min. The mice were then resuscitated over 10 min with lactated Ringer's solution. Sham-operated mice underwent anesthesia and femoral cannulation only. In this model system, the extent of liver damage is reflected in increased serum levels of aspartate aminotransferase (AST) and alanine transaminase (ALT).

TLR4 mRNA = assay: CFW-NEC mouse model (formula feeding), TLR4 mRNA levels; type: in vivo; conditions: 1 mg/kg, i.p. once daily for the first four days of the five day model
Source text: as §2

Structure (SMILES): CC(=O)NC1C(OC(C)C)OC(COC(C)=O)C(OC(C)=O)C1OC(C)=O (centres unmarked) [Compound 34, isopropyl 3,4,6-tri-O-acetyl-2-(acetylamino)-2-deoxyhexopyranoside]
- LPS-induced increase of TNFα mRNA (TNFα mRNA): substantially reduced
- NFκB signalling (luciferase imaging) [1]: reduced NFκB signalling
- increase of iNOS mRNA level in formula-fed (FF) pups (iNOS mRNA [2]): almost eliminated
- LPS-induced increase of iNOS mRNA (iNOS mRNA [3]): substantially reduced
- increase in serum ALT in H/S animals [4]: inhibited the increases
- increase in serum AST in H/S animals [4]: inhibited the increases in AST
- level of TLR4 mRNA in FF animals (TLR4 mRNA): not increased
- TLR4 mRNA levels below normal (TLR4 mRNA; FF animals): 30%
